Patent US20250236608A1, “EGFR INHIBITORS” (Blueprint Medicines Corporation, priority 2022, published 2025)

How the values were obtained:
EGFR L858R = EGFR L858R (Homo sapiens (Human), UniProt P00533, L858R); experiment: Biochemical EGFR inhibition assay, EGFR L858R; conditions: Caliper mobility shift; 1.0 mM ATP or ATP Km; read-out: Enz EGFR_L858R IC50
EGFR (d746-750) = EGFR (d746-750) (Homo sapiens (Human), UniProt P00533, DEL746-750); experiment: Biochemical EGFR inhibition assay, EGFR (d746-750); conditions: Caliper mobility shift; 1.0 mM ATP or ATP Km; read-out: Enz EGFR_Exon19-del746-750 IC50
Sequence of EGFR (d746-750) (P00533 other isoform, or with tags, fused parts or gaps del 1-694/del 746-750 limits assumed): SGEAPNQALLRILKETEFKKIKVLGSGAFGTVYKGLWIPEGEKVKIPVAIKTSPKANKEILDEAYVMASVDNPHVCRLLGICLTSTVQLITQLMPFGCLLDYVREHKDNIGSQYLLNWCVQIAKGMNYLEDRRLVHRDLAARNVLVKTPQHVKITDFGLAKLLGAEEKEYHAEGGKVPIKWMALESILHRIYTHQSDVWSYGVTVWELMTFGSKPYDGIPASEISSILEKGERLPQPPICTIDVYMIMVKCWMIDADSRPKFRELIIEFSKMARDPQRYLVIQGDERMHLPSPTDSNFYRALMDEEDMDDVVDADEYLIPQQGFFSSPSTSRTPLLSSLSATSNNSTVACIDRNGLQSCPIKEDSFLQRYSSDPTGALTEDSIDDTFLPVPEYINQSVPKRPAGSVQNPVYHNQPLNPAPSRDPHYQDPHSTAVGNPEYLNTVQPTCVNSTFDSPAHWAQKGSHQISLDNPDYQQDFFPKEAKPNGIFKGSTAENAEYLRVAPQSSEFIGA

[1] = target: pEGFR (Tyr1068) in PC-9 cells (Ex19Del) (Homo sapiens (Human), UniProt P00533, DEL746-750); experiment: PC-9 pEGFR AlphaLISA assay; assay type: cell-based; conditions: 4 hours incubation, p-EGFR (Tyr1068) AlphaLISA, read-out: Ext pEGFR_PC-9 Ex19Del IC50
Sequence of pEGFR (Tyr1068) in PC-9 cells (Ex19Del) (P00533 other isoform, or with tags, fused parts or gaps del 746-750): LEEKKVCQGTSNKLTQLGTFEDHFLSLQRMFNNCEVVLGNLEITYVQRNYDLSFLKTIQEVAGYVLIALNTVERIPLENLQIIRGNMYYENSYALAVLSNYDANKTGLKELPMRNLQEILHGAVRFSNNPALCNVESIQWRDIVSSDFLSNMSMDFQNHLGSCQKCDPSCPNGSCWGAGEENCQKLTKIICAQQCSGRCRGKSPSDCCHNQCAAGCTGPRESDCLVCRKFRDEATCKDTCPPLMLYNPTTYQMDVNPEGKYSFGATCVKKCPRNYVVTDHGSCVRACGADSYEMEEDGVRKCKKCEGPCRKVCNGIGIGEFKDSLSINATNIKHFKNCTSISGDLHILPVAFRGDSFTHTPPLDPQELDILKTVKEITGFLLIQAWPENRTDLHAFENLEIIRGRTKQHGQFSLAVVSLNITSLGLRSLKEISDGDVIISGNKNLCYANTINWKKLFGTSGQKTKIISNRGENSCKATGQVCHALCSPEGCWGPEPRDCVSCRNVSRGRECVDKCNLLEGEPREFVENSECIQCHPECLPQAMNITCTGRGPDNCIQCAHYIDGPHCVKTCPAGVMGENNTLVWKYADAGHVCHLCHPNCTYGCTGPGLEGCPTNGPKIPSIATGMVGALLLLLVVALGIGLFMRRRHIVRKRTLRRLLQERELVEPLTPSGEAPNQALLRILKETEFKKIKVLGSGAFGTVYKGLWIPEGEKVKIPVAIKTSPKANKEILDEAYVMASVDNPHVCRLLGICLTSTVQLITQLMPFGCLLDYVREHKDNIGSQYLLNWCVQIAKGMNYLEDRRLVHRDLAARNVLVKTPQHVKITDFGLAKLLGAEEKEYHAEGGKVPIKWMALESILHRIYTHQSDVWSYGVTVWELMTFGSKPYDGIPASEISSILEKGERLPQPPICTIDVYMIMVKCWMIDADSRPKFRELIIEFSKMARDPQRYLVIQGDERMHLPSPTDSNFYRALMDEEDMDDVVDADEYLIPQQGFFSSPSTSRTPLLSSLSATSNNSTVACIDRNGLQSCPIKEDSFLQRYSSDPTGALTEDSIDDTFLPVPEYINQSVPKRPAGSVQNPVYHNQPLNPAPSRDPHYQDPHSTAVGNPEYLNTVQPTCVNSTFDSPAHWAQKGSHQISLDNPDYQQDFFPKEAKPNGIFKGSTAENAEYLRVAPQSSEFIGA
Method in brief: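 PC-9 cells seeded overnight in phenol-free DMEM with 10% FBS, then treated 4 h at 37°C with a 10-point, 4-fold compound series. Lysates assayed for pEGFR Tyr1068 by AlphaLISA SureFire; IC50 from % inhibition vs log concentration.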

Sequence of EGFR L858R (P00533 25-1210 L858R): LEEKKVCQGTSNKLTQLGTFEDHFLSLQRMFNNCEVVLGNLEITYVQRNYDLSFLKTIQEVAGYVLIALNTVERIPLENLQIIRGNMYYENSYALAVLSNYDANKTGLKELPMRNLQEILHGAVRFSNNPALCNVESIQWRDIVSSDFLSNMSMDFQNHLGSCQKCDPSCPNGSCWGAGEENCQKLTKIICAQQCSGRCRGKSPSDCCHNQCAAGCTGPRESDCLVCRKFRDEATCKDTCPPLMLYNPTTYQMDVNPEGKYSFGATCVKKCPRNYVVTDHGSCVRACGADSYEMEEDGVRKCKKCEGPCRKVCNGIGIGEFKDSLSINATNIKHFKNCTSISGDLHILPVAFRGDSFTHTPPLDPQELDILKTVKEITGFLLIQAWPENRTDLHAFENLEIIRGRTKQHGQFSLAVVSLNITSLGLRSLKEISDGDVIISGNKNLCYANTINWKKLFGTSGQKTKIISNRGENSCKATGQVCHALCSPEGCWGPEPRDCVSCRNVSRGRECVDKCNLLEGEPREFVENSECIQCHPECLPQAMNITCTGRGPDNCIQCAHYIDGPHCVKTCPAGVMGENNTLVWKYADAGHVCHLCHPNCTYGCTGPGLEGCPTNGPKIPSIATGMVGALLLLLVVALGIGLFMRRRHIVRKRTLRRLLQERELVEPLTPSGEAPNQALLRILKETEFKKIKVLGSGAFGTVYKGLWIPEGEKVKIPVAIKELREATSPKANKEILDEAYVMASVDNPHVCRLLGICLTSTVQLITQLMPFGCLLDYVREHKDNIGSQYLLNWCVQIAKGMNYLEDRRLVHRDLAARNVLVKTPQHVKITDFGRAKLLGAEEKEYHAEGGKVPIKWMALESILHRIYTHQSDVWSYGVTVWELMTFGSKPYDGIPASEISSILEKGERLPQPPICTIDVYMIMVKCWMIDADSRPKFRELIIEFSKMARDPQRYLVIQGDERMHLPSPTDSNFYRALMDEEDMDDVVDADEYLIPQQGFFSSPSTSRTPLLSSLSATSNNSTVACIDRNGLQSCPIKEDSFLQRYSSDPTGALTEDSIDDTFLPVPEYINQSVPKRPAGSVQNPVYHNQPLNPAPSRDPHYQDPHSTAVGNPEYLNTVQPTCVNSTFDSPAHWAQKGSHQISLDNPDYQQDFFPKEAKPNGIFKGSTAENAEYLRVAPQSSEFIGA

SMILES | IC50 (EGFR L858R) [nM] | IC50 (EGFR (d746-750)) [nM] | IC50 [1] [nM]
COc1cc2ncnc(-c3cn(C)nc3-c3ccc(F)cc3F)c2nc1NC(=O)[C@@]12C[C@@H]1CN(C)C2 (single isomer, unassigned) [Example 423, (1S,5S)—N-(4-(3-(2,4-difluorophenyl)-1-methyl-1H-pyrazol-4-yl)-7-methoxypyrido[3,2-d]pyrimidin-6-yl)-3-methyl-3-azabicyclo[3.1.0]hexane-1-carboxamide or (1R,5R)—N-(4-(3-(2,4-difluorophenyl)-1-methyl-1H-pyrazol-4-yl)-7-methoxypyrido[3,2-d]pyrimidin-6-yl)-3-methyl-3-azabicyclo[3.1.0]hexane-1-carboxamide] | 4.1 | 1.6 | 3.8
CCOc1cc2ncnc(-c3cn(C(C)C)nc3-c3ccccc3)c2cc1[C@@H](C)O (single isomer, unassigned) [Example 109, (R)-1-(7-ethoxy-4-(1-isopropyl-3-phenyl-1H-pyrazol-4-yl)quinazolin-6-yl)ethan-1-ol or (S)-1-(7-ethoxy-4-(1-isopropyl-3-phenyl-1H-pyrazol-4-yl)quinazolin-6-yl)ethan-1-ol] | 3.8 | 2.2 | 4.7
COc1cc2ncnc(-c3cn(C)nc3-c3ccccc3)c2nc1NC(=O)[C@@]1(C(F)(F)F)CCCN1C (single isomer, unassigned) [Example 429, (R)—N-(7-methoxy-4-(1-methyl-3-phenyl-1H-pyrazol-4-yl)pyrido[3,2-d]pyrimidin-6-yl)-1-methyl-2-(trifluoromethyl) pyrrolidine-2-carboxamide or (S)—N-(7-methoxy-4-(1-methyl-3-phenyl-1H-pyrazol-4-yl)pyrido[3,2-d]pyrimidin-6-yl)-1-methyl-2-(trifluoromethyl) pyrrolidine-2-carboxamide] | 5.9 | 2.7 | 11.4
COc1cc2ncnc(-c3cn(C)nc3-c3ccccc3)c2nc1O[C@H](C)c1cccnc1F [Example 48, (R)-6-(1-(2-fluoropyridin-3-yl)ethoxy)-7-methoxy-4-(1-methyl-3-phenyl-1H-pyrazol-4-yl)pyrido[3,2-d]pyrimidine] | 1.8 | 1.4 | 1.1
COc1cc2ncnc(-c3c[nH]nc3-c3ccccc3)c2nc1NC(=O)C1(C(F)(F)F)CC1 [Example 372, N-(7-methoxy-4-(3-phenyl-1H-pyrazol-4-yl)pyrido[3,2-d]pyrimidin-6-yl)-1-(trifluoromethyl)cyclopropane-1-carboxamide] | 1.6 | 0.7 | 1.5
COc1cc2ncnc(-c3cn(C)nc3-c3ccccc3F)c2cc1OC(=O)N1CCOC[C@@H]1C [Example 74, 4-(3-(2-fluorophenyl)-1-methyl-1H-pyrazol-4-yl)-7-methoxyquinazolin-6-yl (S)-3-methylmorpholine-4-carboxylate] | 829 | 662 | 4.5
COc1cc2ncnc(-c3cn(C)nc3-c3ccc(F)cc3)c2cc1NC(=O)c1cn(C)nc1C [Example 305, N-(4-(3-(4-fluorophenyl)-1-methyl-1H-pyrazol-4-yl)-7-methoxyquinazolin-6-yl)-1,3-dimethyl-1H-pyrazole-4-carboxamide] | 5.1 | 3.3 | 3.5
COc1cc2ncnc(-c3cn(C)nc3-c3ccccc3)c2cc1OC(=O)N1CCOC(C)(C)C1 [Example 80, 7-methoxy-4-(1-methyl-3-phenyl-1H-pyrazol-4-yl)quinazolin-6-yl 2,2-dimethylmorpholine-4-carboxylate] | 6 | 3.1 | 9.6
C[C@@H](O)c1cc2c(-c3cn(CC(F)F)nc3-c3ccccc3)ncnc2cc1O[C@H]1CCOC1 (single isomer, unassigned) [Example 118, (R)-1-(4-(1-(2,2-difluoroethyl)-3-phenyl-1H-pyrazol-4-yl)-7-(((S)-tetrahydrofuran-3-yl)oxy)quinazolin-6-yl)ethan-1-ol or (S)-1-(4-(1-(2,2-difluoroethyl)-3-phenyl-1H-pyrazol-4-yl)-7-(((S)-tetrahydrofuran-3-yl)oxy)quinazolin-6-yl)ethan-1-ol] | 3.9 | 2.4 | 6
CCOc1cc2ncnc(-c3cn(C)nc3-c3ccccc3)c2cc1N1CCOCC1=O [Example 267, 4-(7-ethoxy-4-(1-methyl-3-phenyl-1H-pyrazol-4-yl)quinazolin-6-yl)morpholin-3-one] | 109 | 9.8 | 12.1
COc1cc2ncnc(-c3cn(C)nc3-c3ccccc3)c2cc1-c1cccc2cn(C)nc12 [Example 138, 7-methoxy-6-(2-methyl-2H-indazol-7-yl)-4-(1-methyl-3-phenyl-1H-pyrazol-4-yl)quinazoline] | 5.6 | 2.1 | 4.6
COc1cc2ncnc(-c3cn(C)nc3-c3ccccc3)c2cc1OC(=O)N1C[C@H](C)OC[C@@H]1C (racemic) [Example 92, cis-rac-7-methoxy-4-(1-methyl-3-phenyl-1H-pyrazol-4-yl)quinazolin-6-yl (2R,5S)-2,5-dimethylmorpholine-4-carboxylate or trans-rac-7-methoxy-4-(1-methyl-3-phenyl-1H-pyrazol-4-yl)quinazolin-6-yl (2S,5S)-2,5-dimethylmorpholine-4-carboxylate] | 9.3 | 3.4 | 13.4
COc1cc2ncnc(-c3cn(C)nc3-c3ccccc3)c2cc1NC(=O)c1ccc(F)cn1 [Example 324, 5-fluoro-N-(7-methoxy-4-(1-methyl-3-phenyl-1H-pyrazol-4-yl)quinazolin-6-yl)picolinamide] | 3.8 | 2 | 2.6
COc1cc2ncnc(-c3cn(CC(F)F)nc3-c3ccccc3)c2cc1[C@@H](C)O (single isomer, unassigned) [Example 102, (R)-1-(4-(1-(2,2-difluoroethyl)-3-phenyl-1H-pyrazol-4-yl)-7-methoxyquinazolin-6-yl)ethan-1-ol or (S)-1-(4-(1-(2,2-difluoroethyl)-3-phenyl-1H-pyrazol-4-yl)-7-methoxyquinazolin-6-yl)ethan-1-ol] | 2 | 1.2 | 4.1
COc1cc2ncnc(-c3cn(C)nc3-c3ccccc3)c2nc1-c1ccc2c(c1)CN(C)C2=O [Example 153, 5-(7-methoxy-4-(1-methyl-3-phenyl-1H-pyrazol-4-yl)pyrido[3,2-d]pyrimidin-6-yl)-2-methylisoindolin-1-one] | 1 | 0.5 | 0.9
CCC(=O)Nc1cc2c(-c3cn(C)nc3-c3c(F)cccc3F)ncnc2cc1-c1ccn(C)n1 [Example 453, N-(4-(3-(2,6-difluorophenyl)-1-methyl-1H-pyrazol-4-yl)-7-(1-methyl-1H-pyrazol-3-yl)quinazolin-6-yl)propionamide] | 1.3 | 0.7 | 0.4
COc1cc2ncnc(-c3cn(C)nc3-c3ccccc3)c2cc1NC(=O)C1(CN(C)C)CC1 [Example 189, 1-((dimethylamino)methyl)-N-(7-methoxy-4-(1-methyl-3-phenyl-1H-pyrazol-4-yl)quinazolin-6-yl)cyclopropane-1-carboxamide] | 4 | 1.9 | 4.3
COc1cc2ncnc(-c3sc(C)nc3-c3ccccc3)c2nc1NC(=O)C1CC1 [Example 437, N-(7-methoxy-4-(2-methyl-4-phenylthiazol-5-yl)pyrido[3,2-d]pyrimidin-6-yl)cyclopropanecarboxamide] | 1.4 | 0.8 | 4.2
COc1cc2ncnc(-c3cn(C)nc3-c3ccccc3)c2cc1OC(=O)N1C(C)CN(C)C[C@H]1C (stereo in doubt) [Example 90, 7-methoxy-4-(1-methyl-3-phenyl-1H-pyrazol-4-yl)quinazolin-6-yl (2R,6R)-2,4,6-trimethylpiperazine-1-carboxylate] | 14 | 8.5 | 31.6
COc1cc2ncnc(-c3cn(C)nc3-c3ccccc3)c2c(F)c1NC(=O)C1CCC1 [Example 295, N-(5-fluoro-7-methoxy-4-(1-methyl-3-phenyl-1H-pyrazol-4-yl)quinazolin-6-yl)cyclobutanecarboxamide] | 4.6 | 2.1 | 5.3
CCOc1cc2ncnc(-c3cn(C)nc3-c3ccccc3)c2cc1NC(=O)[C@]12COC[C@H]1C2 [Example 291, (1S,5S)—N-(7-ethoxy-4-(1-methyl-3-phenyl-1H-pyrazol-4-yl)quinazolin-6-yl)-3-oxabicyclo[3.1.0]hexane-1-carboxamide] | 1.6 | 1 | 1.7
CN(C)CCOc1cc2ncnc(-c3cn(C)nc3-c3ccccc3)c2cc1NC(=O)C12CC(C1)C2 [Example 299, N-(7-(2-(dimethylamino)ethoxy)-4-(1-methyl-3-phenyl-1H-pyrazol-4-yl)quinazolin-6-yl)bicyclo[1.1.1]pentane-1-carboxamide] | 15.3 | 5.4 | 7.1
COc1cc2ncnc(-c3cn(C)nc3-c3ccccc3)c2cc1NC(=O)c1cnn(C)c1 [Example 294, N-(7-methoxy-4-(1-methyl-3-phenyl-1H-pyrazol-4-yl)quinazolin-6-yl)-1-methyl-1H-pyrazole-4-carboxamide] | 1 | 0.5 | 1.1
